{"source": "patent US8741911B2", "about": "“Raf inhibitor compounds” (Eli Lilly and Company, priority 2012, dated 2014)", "key": {"[1]": {"molecular_target": "B-Raf (V600E) (Homo sapiens, UniProt P15056, V600E)", "sequence (P15056 whole entry V600E)": "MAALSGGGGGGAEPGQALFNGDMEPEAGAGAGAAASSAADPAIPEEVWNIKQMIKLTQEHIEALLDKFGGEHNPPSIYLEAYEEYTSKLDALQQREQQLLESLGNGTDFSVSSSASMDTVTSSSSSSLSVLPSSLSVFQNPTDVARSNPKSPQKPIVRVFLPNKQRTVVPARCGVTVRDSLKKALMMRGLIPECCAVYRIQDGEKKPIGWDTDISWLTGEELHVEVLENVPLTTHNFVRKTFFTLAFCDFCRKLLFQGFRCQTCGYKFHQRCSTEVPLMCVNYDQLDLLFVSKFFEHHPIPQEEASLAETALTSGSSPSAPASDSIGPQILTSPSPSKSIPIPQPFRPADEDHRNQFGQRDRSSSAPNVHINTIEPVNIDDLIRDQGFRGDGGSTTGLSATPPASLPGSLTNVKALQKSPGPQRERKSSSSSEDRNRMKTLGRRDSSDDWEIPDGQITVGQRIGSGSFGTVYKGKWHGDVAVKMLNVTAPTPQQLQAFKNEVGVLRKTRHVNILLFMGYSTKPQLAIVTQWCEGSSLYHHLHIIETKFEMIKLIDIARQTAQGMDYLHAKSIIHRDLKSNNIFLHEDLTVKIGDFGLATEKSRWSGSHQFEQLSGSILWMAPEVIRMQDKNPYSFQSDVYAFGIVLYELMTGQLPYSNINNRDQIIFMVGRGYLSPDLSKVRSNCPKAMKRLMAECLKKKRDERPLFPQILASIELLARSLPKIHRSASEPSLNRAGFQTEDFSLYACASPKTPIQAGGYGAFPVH", "assay": "ActivX KiNativ A375 whole cell lysate assay", "type": "binding"}, "[2]": {"test_system": "A375 cells", "assay": "CellTiter-Blue A375 cell proliferation assay", "type": "cell-based", "conditions": "Homo sapiens, A-375, read-out: Cell Proliferation Inhibition IC50", "experimental": "(§1) Collection (ATCC, Manassas, Va.). Briefly, cells are grown in DMEM High Glucose supplemented with 10% characterized fetal bovine serum (Invitrogen, Carlsbad, Calif.) and 1% Penicillin/Streptomycin/L-Glutamine at 37 degrees Celsius, 5% CO2, and 95% humidity. Cells are allowed to expand until reaching 70-95% confluency at which point they are subcultured or harvested for assay use. A serial dilution of test compound is dispensed into a 384-well black clear bottom plate in triplicate. Six hundred twenty-five cells are added per well in 50 μL complete growth medium in the 384-well plate. Plates are incubated for 67 hours at 37 degrees Celsius, 5% CO2, and 95% humidity. At the end of the incubation period, 10 μL of a 440 μM solution of resazurin (Sigma, St. Louis, Mo.) in PBS is added to each well of the plate and plates are incubated for an additional 5 hours at 37 degrees Celsius, 5% CO2, and 95% humidity. Plates are read on a Synergy2 reader (Biotek, Winooski, Vt.) using an excitation of 540 nm and an emission of 600 nm. Data is analyzed using Prism software (Graphpad, San Diego, Calif.) to calculate IC50 values.\n(§2) The A375, HT-29, and Colo-205 cells (ATCC) harbor a V600E mutation."}, "[3]": {"test_system": "HCT-116 cells", "assay": "CellTiter-Blue HCT-116 cell proliferation assay", "type": "cell-based", "conditions": "Homo sapiens; HCT-116, CellTiter-Blue; read-out: Cell Proliferation Inhibition IC50", "experimental": "as §1, with “HCT-116 cells (catalog #CCL-247) are obtained from the American Type Culture Collection” for “Collection”, “in McCoy's 5A” for “in DMEM High Glucose”, “Carlsbad, Calif.),” for “Carlsbad, Calif.)”, “reaching 75-90%” for “reaching 70-95%”\nas §2"}, "[4]": {"test_system": "THP-1", "assay": "CellTiter-Glo proliferation and viability assay", "type": "cell-based", "conditions": "Homo sapiens"}, "[5]": {"test_system": "GA-10-Clone-4", "assay": "CellTiter-Glo proliferation and viability assay", "type": "cell-based", "conditions": "Homo sapiens"}, "[6]": {"test_system": "IM-9", "assay": "CellTiter-Glo proliferation and viability assay", "type": "cell-based", "conditions": "Homo sapiens, read-out: Abs IC50"}, "[7]": {"test_system": "SW900", "assay": "CellTiter-Glo proliferation and viability assay", "type": "cell-based", "conditions": "Homo sapiens"}, "[8]": {"test_system": "NCI-H838", "assay": "CellTiter-Glo proliferation and viability assay", "type": "cell-based", "conditions": "Homo sapiens"}, "[9]": {"test_system": "NCI-H1694", "assay": "CellTiter-Glo proliferation and viability assay", "type": "cell-based", "conditions": "Homo sapiens"}, "[10]": {"test_system": "HT-29", "assay": "CellTiter-Glo proliferation and viability assay", "type": "cell-based", "conditions": "Homo sapiens"}, "[11]": {"test_system": "LNCaP-Clone-FGC", "assay": "CellTiter-Glo proliferation and viability assay", "type": "cell-based", "conditions": "Homo sapiens"}, "[12]": {"test_system": "Colo-205", "assay": "CellTiter-Glo proliferation and viability assay", "type": "cell-based", "conditions": "Homo sapiens, Colo-205, B-Raf V600E, colon", "source_text": "(§3) B-Raf mutations, particularly B-Raf V600E in human cancer are often observed in human malignancies including melanoma, colorectal, lung, and ovarian cancers. This mutation in B-Raf may lead to constitutive kinase activity and malignant transformation."}, "[13]": {"test_system": "WM-266-4", "assay": "CellTiter-Glo proliferation and viability assay", "type": "cell-based", "conditions": "Homo sapiens, WM-266-4, B-Raf V600E, melanoma", "source_text": "as §3"}, "[14]": {"test_system": "A375res cells", "assay": "CellTiter-Glo proliferation and viability assay in vemurafenib-resistant cells", "type": "cell-based, human", "conditions": "Homo sapiens, A375res cells"}, "[15]": {"molecular_target": "C-Raf (WT) (Homo sapiens, UniProt P04049)", "sequence (P04049 whole entry)": "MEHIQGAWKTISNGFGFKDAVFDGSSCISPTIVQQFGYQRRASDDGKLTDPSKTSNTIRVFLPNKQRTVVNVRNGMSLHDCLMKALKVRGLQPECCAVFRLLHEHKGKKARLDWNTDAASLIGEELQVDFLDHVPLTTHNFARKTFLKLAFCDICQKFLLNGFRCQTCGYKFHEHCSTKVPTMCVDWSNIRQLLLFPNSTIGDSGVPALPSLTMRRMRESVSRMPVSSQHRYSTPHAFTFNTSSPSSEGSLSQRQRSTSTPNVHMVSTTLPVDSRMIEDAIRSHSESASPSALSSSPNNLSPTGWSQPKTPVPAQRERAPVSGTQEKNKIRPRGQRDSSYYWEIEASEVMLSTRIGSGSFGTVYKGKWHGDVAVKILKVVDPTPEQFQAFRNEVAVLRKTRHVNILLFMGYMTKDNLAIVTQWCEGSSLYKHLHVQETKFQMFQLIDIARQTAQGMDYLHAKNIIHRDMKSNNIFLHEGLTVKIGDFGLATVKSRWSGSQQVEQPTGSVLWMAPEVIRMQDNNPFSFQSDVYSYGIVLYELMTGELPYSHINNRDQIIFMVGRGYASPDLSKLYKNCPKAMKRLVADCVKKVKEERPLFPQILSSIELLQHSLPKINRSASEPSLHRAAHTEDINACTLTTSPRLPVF", "assay": "biochemical"}}, "note": "Where two headings read alike, the source gives them in different places.", "data": [{"compound": "CNc1ncc2cc(-c3cc(NC(=O)NCCC(C)(C)C)c(F)cc3C)c(C)nc2n1", "note": "[Example 1, 1-(3,3-Dimethylbutyl)-3-(2-fluoro-4-methyl-5-(7-methyl-2-(methylamino)pyrido[2,3-d]pyrimidin-6-yl)phenyl)urea]", "values": [{"measurement": "inhibition at 0.1 µM", "setting": "[1]; 100 nM", "value": 82.9, "unit": "%"}, {"measurement": "% inhibition", "setting": "[1]; 100 nM, 0.1 µM", "value": 82, "unit": "%"}, {"measurement": "inhibition at 1 µM", "setting": "[1]; 1000 nM", "value": 96.5, "unit": "%"}, {"measurement": "% inhibition", "setting": "[1]; 1000 nM, 1 µM", "value": ">98", "unit": "%"}, {"measurement": "IC50", "setting": "[2]", "value": 9, "unit": "nM"}, {"measurement": "IC50", "setting": "[3]", "value": 224, "unit": "nM"}, {"measurement": "IC50", "setting": "[4]; read-out: Abs IC50", "value": 0.08, "unit": "nM"}, {"measurement": "IC50", "setting": "[4]; read-out: Rel IC50", "value": 0.03, "unit": "nM"}, {"measurement": "IC50", "setting": "[5]; read-out: Abs IC50", "value": 0.2, "unit": "nM"}, {"measurement": "IC50", "setting": "[5]; read-out: Rel IC50", "value": 0.25, "unit": "nM"}, {"measurement": "IC50", "setting": "[6]", "value": 0.38, "unit": "nM"}, {"measurement": "IC50", "setting": "[7]; read-out: Abs IC50", "value": 0.69, "unit": "nM"}, {"measurement": "IC50", "setting": "[7]; read-out: Rel IC50", "value": 0.23, "unit": "nM"}, {"measurement": "IC50", "setting": "[8]; read-out: Abs IC50", "value": 13.4, "unit": "nM"}, {"measurement": "IC50", "setting": "[8]; read-out: Rel IC50", "value": 6.97, "unit": "nM"}, {"measurement": "IC50", "setting": "[9]; read-out: Abs IC50", "value": 15.1, "unit": "nM"}, {"measurement": "IC50", "setting": "[9]; read-out: Rel IC50", "value": 16.3, "unit": "nM"}, {"measurement": "IC50", "setting": "[10]; HT-29, read-out: Abs IC50", "value": "> 20", "unit": "nM"}, {"measurement": "IC50", "setting": "[10]; HT-29, read-out: Rel IC50", "value": 0.06, "unit": "nM"}, {"measurement": "IC50", "setting": "[10]; HT-29, B-Raf V600E, colon, CellTiter-Glo, read-out: IC50", "value": 7.3, "unit": "nM"}, {"measurement": "IC50", "setting": "[11]; read-out: Abs IC50", "value": "> 20", "unit": "nM"}, {"measurement": "IC50", "setting": "[11]; read-out: Rel IC50", "value": 2.74, "unit": "nM"}, {"measurement": "IC50", "setting": "[12]", "value": 27, "unit": "nM"}, {"measurement": "IC50", "setting": "[13]", "value": 52.9, "unit": "nM"}, {"measurement": "IC50", "setting": "[14]", "value": 34, "unit": "nM"}, {"measurement": "inhibition at 0.001 µM", "setting": "[15]", "value": -11, "unit": "%"}, {"measurement": "inhibition at 0.01 µM", "setting": "[15]", "value": 23.9, "unit": "%"}, {"measurement": "inhibition at 0.1 µM", "setting": "[15]", "value": 50.8, "unit": "%"}, {"measurement": "inhibition at 1 µM", "setting": "[15]", "value": 79.3, "unit": "%"}]}]}
